One assay concerns Agelas clathrodes. Put plainly: Distribution in Carribean Agelas clathrodes was determined and expressed as % dry weight. The class given is functional.
In another assay the test system is Agelas conifera. As to the kind of experiment: Distribution in Carribean Agelas conifera was determined and expressed as % dry weight. The class given is functional.
In a further assay the test system is Agelas dispar. Put plainly: Distribution in Carribean Agelas dispar was determined and expressed as % dry weight. The class given is functional.
For a further assay, the system named is agelas longissima. Put plainly: Distribution in Carribean Agelas longissima was determined and expressed as % dry weight. The class given is functional.
Assay [1] is filed under the species Cavia porcellus. As to the kind of experiment: Apparent affinity towards histamine receptor was determined and expressed as pD2.
For assay [2], the species on record is Cavia porcellus. As to the kind of experiment: Apparent affinity towards histamine receptor was determined and expressed as pD2; IA = Inactive.

The source made the active and inactive calls. No cut-off for these calls is given here.

We go through seven molecules from ChEMBL document CHEMBL1150555, “Anti-histaminic activity of bromopyrrole alkaloids isolated from Caribbean Agelas sponges” (Bioorg Med Chem Lett, 1997).

On to `NC1=N/C(=C\CCNC(=O)c2cc(Br)c(Br)[nH]2)C(=O)N1`, for which the Dry weight in the assay with Agelas clathrodes was 3.2%; with Agelas conifera, 0.8%; in the assay on Agelas dispar it was 3.5%; with agelas longissima it was 1.1%. The pD2 in the assay listed under Cavia porcellus [1] was 5.52.
As for `NC1=N/C(=C\C(O)CNC(=O)c2cc(Br)c(Br)[nH]2)C(=O)N1` (stereo not given), the Dry weight with Agelas clathrodes turned out to be 3.2%; in the assay on Agelas conifera, 0.8%; with Agelas dispar, 3.5%; with agelas longissima, 1.1%. Also, in the assay listed under Cavia porcellus [1], the pD2 was 4.48.
Take `Nc1ncc(/C=C/CNC(=O)c2cc(Br)c(Br)[nH]2)[nH]1`: the Dry weight in the assay with Agelas clathrodes is 2.1%; in the assay with Agelas conifera, 2.1%; in the assay with Agelas dispar, 4.2%; with agelas longissima it was 4.1%. The pD2 in the assay filed under Cavia porcellus [1] was found to be 4.02.
Consider `Nc1nc([C@H]2[C@H](CNC(=O)c3cc(Br)c[nH]3)[C@@H](CNC(=O)c3cc(Br)c[nH]3)[C@@H]2c2c[nH]c(N)n2)c[nH]1`, for which the Dry weight in the assay with Agelas clathrodes came to 15.1%; with Agelas conifera it was 8.8%; with Agelas dispar it was 15.5%; with agelas longissima it was 2.5%. In the assay filed under Cavia porcellus [1], the pD2 is 4.24.
`NC1=N/C(=C\C(O)CNC(=O)c2cc(Br)c[nH]2)C(=O)N1` (stereo not given): the Dry weight stood at 0.5% in the assay with Agelas clathrodes, 3.5% in the assay with Agelas conifera, 0.2% in the assay with Agelas dispar and 3.3% in the assay with agelas longissima. Further, the pD2 in the assay filed under Cavia porcellus [1] was 4.34.
Consider `C[N+]1=CNC[C@]1(C)CC(NC(=O)c1cc(Br)c[nH]1)C(=O)[O-]` (stereo not given in full), for which the Dry weight was 7.2% in the assay with Agelas clathrodes, 0% with Agelas conifera, 0% with Agelas dispar and 0% in the assay on agelas longissima. In addition, the pD2 entry in the assay filed under Cavia porcellus [2] is “inactive”.
Take `NC1=N/C(=C\CCNC(=O)c2cc(Br)c[nH]2)C(=O)N1`: the Dry weight in the assay on Agelas clathrodes stood at 0.5%; in the assay on Agelas conifera, 3.5%; in the assay on Agelas dispar it was 0.2%; in the assay with agelas longissima, 3.3%. The pD2 in the assay filed under Cavia porcellus [1] worked out at 5.33.
